Source: patent US20170112896A1, “SMALL MOLECULE RAC OR RHO INHIBITORS” (Ohio State Innovation Foundation, priority 2014, published 2017)
Where two headings read alike, the source gives them in different places. Square brackets hold non-standard residues; d marks the D form. Side chains are listed from the residue outwards. Peptide text beside a SMILES is read from it. * marks the point of attachment. His(τ-Bzl) = N[C@@H](Cc1cn(Cc2ccccc2)cn1)C(=O)O; Phe(3,4-F2) = N[C@@H](Cc1ccc(F)c(F)c1)C(=O)O; Phe(4-F) = N[C@@H](Cc1ccc(F)cc1)C(=O)O; 2Nal = N[C@@H](Cc1ccc2ccccc2c1)C(=O)O; d2Nal = N[C@H](Cc1ccc2ccccc2c1)C(=O)O; Tle = CC(C)(C)[C@H](N)C(=O)O; dNle = CCCC[C@@H](N)C(=O)O; Nle = CCCC[C@H](N)C(=O)O; X4 = O=C(c1ccc(Cl)nc1)*; Dap = NC[C@H](N)C(=O)O

Assays:
[1] = system: H1299 lung cancer cells; type: cell-based; conditions: for IC50: 72 h; for anti-proliferative activity against lung cancer cells (in words): MTT assay
Protocol: MTT assays (Mosmann, T. (1983) J. Immunol. Methods 65:55) were performed with H1299 lung cancer cells. One hundred μL of H1299 cells (0.5×10^5 cells/mL) were seeded in each well of a 96-well culture plate and allowed to grow overnight in Advanced RPMI medium supplemented with 10% fetal bovine serum (FBS) and 1% penicillin-streptomycin. Varying concentrations of cyclic peptide (0-25 μM) were added to the each well and the cells were incubated at 37° C. with 5% CO2 for 72 hours. Ten μL of a MTT stock solution (Roche) was added into each well. The plate was incubated at 37° C. for 4 h. Then 100 μL of SDS-HCl solubilizing buffer was added into each well, and the resulting solution was mixed thoroughly. The plate was incubated at 37° C. overnight. The absorbance of the formazan product was measured at 570 nm using a Molecular Devices Spectramax M5 plate reader. Each experiment was performed in triplicates and the cells without any peptide added were treated as control.

[2] = target: T1, Ras(G12V)-Raf RBD interaction (Homo sapiens, UniProt P01116, G12V); assay: HTRF assay, inhibition of Ras-Raf RBD interaction; type: binding; conditions: for IC50: read-out: HTRF IC50; for increase of Ras binding affinity by substitution: relative to parent 9A5/9A6
T1 construct: The G12V mutant K-Ras (amino acids 1-185) was recombinantly fused to glutathione 5-transferase (GST) at its N-terminus; GST (N, cleaved yes); made in house; host or cells: Escherichia coli BL21
T1 sequence (P01116 1-185 isoform P01116-2 G12V): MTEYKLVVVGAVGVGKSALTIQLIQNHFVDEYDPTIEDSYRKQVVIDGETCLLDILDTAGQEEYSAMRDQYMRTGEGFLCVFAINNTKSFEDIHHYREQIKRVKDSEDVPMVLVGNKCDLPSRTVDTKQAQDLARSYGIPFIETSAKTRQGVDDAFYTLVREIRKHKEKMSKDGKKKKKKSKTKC
Protocol: Recombinant HA-tagged K-Ras (no GST, 50 nM), GST-Raf RBD (50 nM each), a monoclonal anti-HA antibody labeled with acceptor d2 (2 μg/mL), a monoclonal anti-GST antibody labeled with donor Tb (0.25 μg/mL) (Cisbio), and increasing concentrations of cyclic peptide (0-20 μM) were mixed in PBS (total volume of 20 μL) in a 384-well plate. The plate was incubated overnight at 4° C. and the HTRF signal was measured on a Molecular Devices Spectramax M5 or a Tecan infinite M1000 Pro plate reader. The data were analyzed by Prism 6.0 from Graphpad Software, Inc. (La Jolla, Calif.) and IC50 values were obtained by fitting the data to dose-response-inhibition curve.

[3] = inhibition of Ras-Raf interaction, unlabeled peptide

| SMILES | IC50 [1] | other results |
| --- | --- | --- |
| CCCC[C@H]1NC(=O)[C@H](Cc2ccccc2)NC(=O)[C@H](CCCNC(=N)N)NC(=O)[C@@H](Cc2ccc3ccccc3c2)NC(=O)[C@H](CCCNC(=N)N)NC(=O)[C@H](CCCNC(=N)N)NC(=O)[C@@H](CCCNC(=N)N)NC(=O)[C@@H](C)NC(=O)[C@H]([C@@H](C)O)NC(=O)[C@H](Cc2c[nH]c3ccccc23)NC(=O)[C@H](CCC(N)=O)NC1=O [Cyclorasin 9A12] | 9.6 ± 1.3 µM |  |
| CCCC[C@H]1NC(=O)[C@H](Cc2ccc(F)cc2)NC(=O)[C@H](CCCNC(=N)N)NC(=O)[C@@H](Cc2ccc3ccccc3c2)NC(=O)[C@H](CCCNC(=N)N)NC(=O)[C@H](CCCNC(=N)N)NC(=O)[C@@H](CCCNC(=N)N)NC(=O)[C@@H](C(C)C)NC(=O)[C@H](C(C)(C)C)NC(=O)[C@H](Cc2c[nH]c3ccccc23)NC(=O)[C@H](CCC(N)=O)NC1=O [Cyclorasin 9A53] (cyclo(W[Tle][dV][dR]RR[d2Nal]R[Phe(4-F)][dNle]Q)) | 13 ± 1 µM |  |
| CCCC[C@H](NC(=O)CC[C@@H]1NC(=O)[C@@H](C)NC(=O)[C@H]([C@@H](C)O)NC(=O)[C@H](Cc2c[nH]c3ccccc23)NC(=O)[C@H](CCC(N)=O)NC(=O)[C@@H](CCCC)NC(=O)[C@H](Cc2ccc(F)cc2)NC(=O)[C@H](CCCNC(=N)N)NC(=O)[C@@H](Cc2ccc3ccccc3c2)NC(=O)[C@H](CCCNC(=N)N)NC(=O)[C@H](CCCNC(=N)N)NC1=O)C(N)=O [Cyclorasin 9A4] (cyclo(RR[d2Nal]R[Phe(4-F)][dNle]QWT[dA]E([Nle-NH2]))) |  | IC50 [2, 3]: 0.5 ± 0.1 µM |
| CCCC[C@H]1NC(=O)[C@H](Cc2ccc(O)cc2)NC(=O)[C@H](CCCNC(=N)N)NC(=O)[C@@H](Cc2ccc3ccccc3c2)NC(=O)[C@H](CCCNC(=N)N)NC(=O)[C@H](CCCNC(=N)N)NC(=O)[C@@H](CCCNC(=N)N)NC(=O)[C@@H](C)NC(=O)[C@H]([C@@H](C)O)NC(=O)[C@H](Cc2c[nH]c3ccccc23)NC(=O)[C@H](CCC(N)=O)NC1=O [Cyclorasin 9A13] (cyclo(QWT[dA][dR]RR[d2Nal]RY[dNle])) |  | IC50 [2, 3]: > 20 µM |
| C[C@H]1NC(=O)[C@H]([C@@H](C)O)NC(=O)[C@H](Cc2c[nH]c3ccccc23)NC(=O)[C@H](CCC(N)=O)NC(=O)[C@@H](CCCNC(=N)N)NC(=O)[C@H](Cc2ccc(F)c(F)c2)NC(=O)[C@H](CCCNC(=N)N)NC(=O)[C@@H](Cc2ccc3ccccc3c2)NC(=O)[C@H](CCCNC(=N)N)NC(=O)[C@H](CCCNC(=N)N)NC(=O)[C@H](CCCNC(=N)N)NC1=O [Cyclorasin 9A52] (cyclo([Phe(3,4-F2)][dR]QWT[dA]RRR[d2Nal]R)) |  | IC50 [2, 3]: > 1 µM |
| CCCC[C@H]1NC(=O)[C@H](Cc2ccc(F)cc2)NC(=O)[C@H](CCCNC(=N)N)NC(=O)[C@@H](Cc2ccc3ccccc3c2)NC(=O)[C@H](CCCNC(=N)N)NC(=O)[C@H](CCCNC(=N)N)NC(=O)[C@@H](CCCNC(=N)N)NC(=O)[C@@H](C)NC(=O)[C@H](C(C)(C)C)NC(=O)[C@H](Cc2c[nH]c3ccccc23)NC(=O)[C@H](CCC(N)=O)NC1=O [Cyclorasin 9A16] (cyclo(W[Tle][dA][dR]RR[d2Nal]R[Phe(4-F)][dNle]Q)) | 3.5 ± 0.6 µM | increase of Ras binding affinity by substitution [2]: 2 fold |
| CCCC[C@H]1NC(=O)[C@H](Cc2ccc(F)c(F)c2)NC(=O)[C@H](CCCNC(=N)N)NC(=O)[C@@H](Cc2ccc3ccccc3c2)NC(=O)[C@H](CCCNC(=N)N)NC(=O)[C@H](CCCNC(=N)N)NC(=O)[C@H](CCCNC(=N)N)NC(=O)[C@@H](C)NC(=O)[C@H]([C@@H](C)O)NC(=O)[C@H](Cc2c[nH]c3ccccc23)NC(=O)[C@H](CCC(N)=O)NC1=O [Cyclorasin 9A43] (cyclo(WT[dA]RRR[d2Nal]R[Phe(3,4-F2)][dNle]Q)) | 6.9 ± 0.8 µM | increase of Ras binding affinity by substitution [2]: 2 fold |
| CCCC[C@H]1NC(=O)[C@H](Cc2ccc(F)c(F)c2)NC(=O)[C@H](CCCNC(=N)N)NC(=O)[C@@H](Cc2ccc3ccccc3c2)NC(=O)[C@H](CCCNC(=N)N)NC(=O)[C@H](CCCNC(=N)N)NC(=O)[C@@H](CCCNC(=N)N)NC(=O)[C@@H](C(C)C)NC(=O)[C@H](C(C)(C)C)NC(=O)[C@H](Cc2c[nH]c3ccccc23)NC(=O)[C@H](CCC(N)=O)NC1=O [Cyclorasin 9A51] (cyclo(W[Tle][dV][dR]RR[d2Nal]R[Phe(3,4-F2)][dNle]Q)) | 6.7 ± 0.8 µM | anti-proliferative activity against lung cancer cells (in words) [1]: less effective |
| CCCC[C@H]1NC(=O)[C@H](Cc2ccc(F)cc2)NC(=O)[C@H](CCCNC(=N)N)NC(=O)[C@@H](Cc2ccc3ccccc3c2)NC(=O)[C@H](CCCNC(=N)N)NC(=O)[C@H](CCCNC(=N)N)NC(=O)[C@H](CCC(=O)N[C@@H](CCCCN)C(N)=O)NC(=O)[C@@H](C)NC(=O)[C@H]([C@@H](C)O)NC(=O)[C@H](Cc2c[nH]c3ccccc23)NC(=O)[C@H](CCC(N)=O)NC1=O [Cyclorasin 9A1] (cyclo(RR[d2Nal]R[Phe(4-F)][dNle]QWT[dA]E([Lys-NH2]))) | 13 ± 2 µM |  |
| CCCC[C@H]1NC(=O)[C@H](Cc2ccc(F)cc2)NC(=O)[C@H](CCCNC(=N)N)NC(=O)[C@@H](Cc2ccc3ccccc3c2)NC(=O)[C@H](CCCNC(=N)N)NC(=O)[C@H](CCCNC(=N)N)NC(=O)[C@H](CCCNC(=N)N)NC(=O)[C@@H](C(C)C)NC(=O)[C@H](C(C)(C)C)NC(=O)[C@H](Cc2c[nH]c3ccccc23)NC(=O)[C@H](CCC(N)=O)NC1=O [Cyclorasin 9A48] (cyclo(W[Tle][dV]RRR[d2Nal]R[Phe(4-F)][dNle]Q)) | 11 ± 3 µM |  |
| CCCC[C@H]1NC(=O)[C@H](Cc2ccc(F)c(F)c2)NC(=O)[C@H](CCCNC(=N)N)NC(=O)[C@@H](Cc2ccc3ccccc3c2)NC(=O)[C@H](CCCNC(=N)N)NC(=O)[C@H](CCCNC(=N)N)NC(=O)[C@H](CCCNC(=N)N)NC(=O)[C@@H](C(C)C)NC(=O)[C@H](C(C)(C)C)NC(=O)[C@H](Cc2c[nH]c3ccccc23)NC(=O)[C@H](CCC(N)=O)NC1=O [Cyclorasin 9A54] (cyclo(W[Tle][dV]RRR[d2Nal]R[Phe(3,4-F2)][dNle]Q)) | 7.2 ± 0.4 µM | anti-proliferative activity against lung cancer cells (in words) [1]: less effective |
| CC(C)C[C@H]1NC(=O)[C@H](Cc2ccc(F)cc2)NC(=O)[C@H](CCCNC(=N)N)NC(=O)[C@@H](Cc2ccc3ccccc3c2)NC(=O)[C@H](CCCNC(=N)N)NC(=O)[C@H](CCCNC(=N)N)NC(=O)[C@@H](CCCNC(=N)N)NC(=O)[C@@H](C)NC(=O)[C@H]([C@@H](C)O)NC(=O)[C@H](Cc2c[nH]c3ccccc23)NC(=O)[C@H](CCC(N)=O)NC1=O [Cyclorasin 9A10] (cyclo(WT[dA][dR]RR[d2Nal]R[Phe(4-F)][dL]Q)) | 10 ± 3 µM |  |
| CCCC[C@H]1NC(=O)[C@H](Cc2ccc(F)cc2)NC(=O)[C@H](CCCNC(=N)N)NC(=O)[C@@H](Cc2ccc3ccccc3c2)NC(=O)[C@H](CCCNC(=N)N)NC(=O)[C@H](CCCNC(=N)N)NC(=O)[C@H](CCCNC(=N)N)NC(=O)[C@@H](C)NC(=O)[C@H]([C@@H](C)O)NC(=O)[C@H](Cc2ccc3ccccc3c2)NC(=O)[C@H](CCC(N)=O)NC1=O [Cyclorasin 9A49] (cyclo([2Nal]T[dA]RRR[d2Nal]R[Phe(4-F)][dNle]Q)) | 6.3 ± 0.4 µM |  |
| CCCC[C@H]1NC(=O)[C@H](Cc2ccc(F)cc2)NC(=O)[C@H](CCCNC(=N)N)NC(=O)[C@H](Cc2ccc3ccccc3c2)NC(=O)[C@H](CCCNC(=N)N)NC(=O)[C@H](CCCNC(=N)N)NC(=O)[C@H](CCCNC(=N)N)NC(=O)[C@@H](C)NC(=O)[C@H]([C@@H](C)O)NC(=O)[C@H](Cc2c[nH]c3ccccc23)NC(=O)[C@H](CCC(N)=O)NC1=O [Cyclorasin 9A55] (cyclo(WT[dA]RRR[2Nal]R[Phe(4-F)][dNle]Q)) | 12 ± 1 µM |  |
| CCCC[C@H]1NC(=O)[C@H](Cc2ccc(F)cc2)NC(=O)[C@H](CCCNC(=N)N)NC(=O)[C@@H](Cc2ccc3ccccc3c2)NC(=O)[C@H](CCCNC(=N)N)NC(=O)[C@H](CCCNC(=N)N)NC(=O)[C@@H](CCCNC(=N)N)NC(=O)[C@@H](CC(C)C)NC(=O)[C@H]([C@@H](C)O)NC(=O)[C@H](Cc2c[nH]c3ccccc23)NC(=O)[C@H](CCC(N)=O)NC1=O [Cyclorasin 9A15] (cyclo(WT[dL][dR]RR[d2Nal]R[Phe(4-F)][dNle]Q)) | 12 ± 1 µM |  |
| CCCC[C@H]1NC(=O)[C@H](Cc2ccc(F)cc2)NC(=O)[C@H](CCCNC(=N)N)NC(=O)[C@@H](Cc2ccc3ccccc3c2)NC(=O)[C@H](CCCNC(=N)N)NC(=O)[C@H](CCCNC(=N)N)NC(=O)[C@H](CCCNC(=N)N)NC(=O)[C@@H](C)NC(=O)[C@H]([C@@H](C)O)NC(=O)[C@H](Cc2cn(Cc3ccccc3)cn2)NC(=O)[C@H](CCC(N)=O)NC1=O [Cyclorasin 9A7] (cyclo([Phe(4-F)][dNle]Q[His(τ-Bzl)]T[dA]RRR[d2Nal]R)) | 10 ± 1 µM |  |
| CCCC[C@H]1NC(=O)[C@H](CNC(=O)c2ccc(Cl)nc2)NC(=O)[C@H](CCCNC(=N)N)NC(=O)[C@@H](Cc2ccc3ccccc3c2)NC(=O)[C@H](CCCNC(=N)N)NC(=O)[C@H](CCCNC(=N)N)NC(=O)[C@H](CCCNC(=N)N)NC(=O)[C@@H](C)NC(=O)[C@H](C(C)(C)C)NC(=O)[C@H](Cc2c[nH]c3ccccc23)NC(=O)[C@H](CCC(N)=O)NC1=O [Cyclorasin 9A44b] (cyclo(W[Tle][dA]RRR[d2Nal]R[Dap](X4)[dNle]Q)) |  | IC50 [2]: 0.52 ± 0.16 µM |
| CC(C)[C@H]1NC(=O)[C@H](C(C)(C)C)NC(=O)[C@H](Cc2c[nH]c3ccccc23)NC(=O)[C@H](CCC(N)=O)NC(=O)[C@@H](CCCNC(=N)N)NC(=O)[C@H](Cc2ccc(F)c(F)c2)NC(=O)[C@H](CCCNC(=N)N)NC(=O)[C@@H](Cc2ccc3ccccc3c2)NC(=O)[C@H](CCCNC(=N)N)NC(=O)[C@H](CCCNC(=N)N)NC(=O)[C@H](CCCNC(=N)N)NC1=O [Cyclorasin 9A50] (cyclo([Phe(3,4-F2)][dR]QW[Tle][dV]RRR[d2Nal]R)) |  | IC50 [2, 3]: > 1 µM |
